Results from patent publication US12410160B2 (Gilead Sciences, Inc., priority 2021, dated 2025).
Where two headings read alike, the source gives them in different places.

Tests used:
[1] = pKa analysis by capillary electrophoresis (pKa PRO Analyzer, co-solvent method); format: physicochemical; settings: co-solvent method (60% to 30% methanol buffers); for pKa: methanol/aqueous co-solvent buffers
Description: The 10 mM DMSO stock solutions of test articles (TAs) were diluted 100-fold with either 2 mM HCl or 2 mM NaOH and methanol. The final concentration of methanol was 60%, TA concentration was 100 μM, and DMSO concentration was 1%. The TAs were transferred into 24 consecutive wells of a 96-well plate for analysis using the co-solvent method. […] All data was obtained using a pKa. PRO Analyzer (AATI, Ankey, IA) by performing four consecutive CE runs from 60% to 30% co-solvent buffers. Norfloxacin was used as a daily performance-indicating standard. The pKa values were predicted by using pKa. Estimator® software (AATI, Ankey, IA) by relating molecular weight of the TA to its mobility.

human KHK-C = human KHK-C (Homo sapiens (Human), UniProt P50053); experiment: KHK Biochemical Assay (IC50), ADP-Glo, KHK-C; settings: average of at least two separate assays
Chain of human KHK-C (P50053 whole entry): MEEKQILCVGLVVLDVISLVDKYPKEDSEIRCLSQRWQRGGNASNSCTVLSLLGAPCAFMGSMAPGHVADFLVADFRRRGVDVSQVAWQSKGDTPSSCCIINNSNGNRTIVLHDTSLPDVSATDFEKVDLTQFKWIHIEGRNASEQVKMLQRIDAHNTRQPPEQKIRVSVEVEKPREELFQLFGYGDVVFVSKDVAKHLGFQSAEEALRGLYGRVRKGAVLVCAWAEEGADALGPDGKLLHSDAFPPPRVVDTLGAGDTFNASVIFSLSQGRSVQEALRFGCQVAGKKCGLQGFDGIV
Outline: (§1)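 His-tagged enzyme expressed in BL21 (DE3), Ni-NTA purified. Compounds, serially diluted 1:3 in DMSO, pre-incubated 30 min with enzyme in 50 mM Hepes pH 7.4, 140 mM KCl, 5 mM MgCl2, 0.01% Triton-X, then ATP and fructose added; 4 h at room temperature. ADP formation read by ADP-Glo luminescence.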

human KHK-A = human KHK-A (Homo sapiens (Human), UniProt P50053); experiment: KHK Biochemical Assay (IC50), ADP-Glo, KHK-A; settings: average of at least two separate assays
Chain of human KHK-A (P50053 other isoform, or with tags, fused parts or gaps): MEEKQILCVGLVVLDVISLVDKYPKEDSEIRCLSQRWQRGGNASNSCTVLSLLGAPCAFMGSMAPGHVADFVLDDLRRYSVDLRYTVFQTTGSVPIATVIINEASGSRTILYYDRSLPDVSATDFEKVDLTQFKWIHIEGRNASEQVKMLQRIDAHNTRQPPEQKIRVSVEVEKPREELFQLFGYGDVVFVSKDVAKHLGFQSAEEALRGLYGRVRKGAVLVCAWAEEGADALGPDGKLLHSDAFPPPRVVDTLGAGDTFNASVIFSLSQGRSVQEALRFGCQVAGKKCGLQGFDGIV
Outline: as §1

HepG2 cells = experiment: F1P Cell-Based Assay (EC50), 13C6-fructose-1-phosphate in HepG2 cells (cell culture medium or 50% human plasma)
human OATP1B1 = human OATP1B1 (Homo sapiens (Human), UniProt Q9Y6L6); experiment: In Vitro Inhibition Assessment with Human OATP1B1 Transporter; format: in vitro ADME; settings: HEK293-OATP1B1 cells, probe substrate pravastatin
Chain of human OATP1B1 (Q9Y6L6 whole entry): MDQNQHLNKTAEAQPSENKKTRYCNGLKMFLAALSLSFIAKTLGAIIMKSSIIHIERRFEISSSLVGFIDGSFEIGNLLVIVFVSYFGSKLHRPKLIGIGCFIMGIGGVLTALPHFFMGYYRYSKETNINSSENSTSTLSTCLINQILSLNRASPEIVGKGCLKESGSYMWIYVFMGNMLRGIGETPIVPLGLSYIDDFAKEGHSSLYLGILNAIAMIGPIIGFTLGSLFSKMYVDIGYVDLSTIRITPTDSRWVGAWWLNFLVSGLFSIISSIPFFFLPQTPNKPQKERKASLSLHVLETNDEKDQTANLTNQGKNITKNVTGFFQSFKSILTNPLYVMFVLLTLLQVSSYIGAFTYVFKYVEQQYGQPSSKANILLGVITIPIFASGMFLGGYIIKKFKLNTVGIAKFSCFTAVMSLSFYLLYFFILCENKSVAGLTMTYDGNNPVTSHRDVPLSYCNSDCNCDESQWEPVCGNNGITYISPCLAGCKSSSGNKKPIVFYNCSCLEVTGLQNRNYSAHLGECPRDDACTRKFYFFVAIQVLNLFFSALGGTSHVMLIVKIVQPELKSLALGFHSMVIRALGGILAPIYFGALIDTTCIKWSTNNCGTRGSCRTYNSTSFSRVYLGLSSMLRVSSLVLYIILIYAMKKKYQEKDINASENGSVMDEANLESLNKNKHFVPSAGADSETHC
Outline: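 HEK293-OATP1B1 and mock cells were preincubated 15 min with compound in HBSS. They were then coincubated 5 min with compound plus pravastatin (0.4% DMSO final), and intracellular substrate was quantified by LC-MS/MS. Mock-corrected uptake relative to solvent gave percentage activity, from which IC50 was fitted.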

[2] = target: KHK-C expressed in NRK-52E cells (Homo sapiens (Human), UniProt P50053); experiment: KHK-C Cell-based Assay (EC50), NRK CTG, fructose-mediated ATP-depletion
Chain of KHK-C expressed in NRK-52E cells (P50053 whole entry): as the sequence (P50053 whole entry) above

[3] = pH range 1.7-11.2, read-out: 1st pKa
[4] = Homo sapiens, HepG2, HepG2 cells, 50% human plasma, read-out: F1P 50% HP EC50
[5] = Homo sapiens, HepG2, read-out: F1P 10% FBS EC50, HepG2 cells, cell culture medium (10% FBS)
[6] = pH range 1.7-11.2, read-out: 2nd pKa

pKa [1, 3] | IC50 (human KHK-C) | IC50 (human KHK-A) | EC50 (HepG2 cells; [4]) | EC50 (HepG2 cells; [5]) | IC50 (human OATP1B1) | EC50 [2] | 1st pKa ([1]; pH range 1.7-11.2) | EC50 (HepG2 cells; HepG2 cells, 50% human plasma, read-out: F1P 50% HP EC50) | EC50 (HepG2 cells; read-out: F1P 10% FBS EC50, HepG2 cells, cell culture medium (10% FBS)) | IC50 (human KHK-C; ADP-Glo) | IC50 (human KHK-A; ADP-Glo) | pKa [1, 6] | SMILES | EC50 (HepG2 cells; Homo sapiens, HepG2, read-out: F1P 10% FBS EC50) | EC50 (HepG2 cells; Homo sapiens, HepG2, read-out: F1P 50% HP EC50)
2.1 | 9 nM | 12.2 nM | 22.2 nM | 20.7 nM | 31700 nM | 41.8 nM | – | – | – | – | – | – | C[C@H]1[C@H](O)CN1c1nc(-c2cccc([S@@](C)(=N)=O)c2)c2c(n1)C(F)(F)CC2 (single isomer, unassigned) [Example 492] | – | –
2.5 | 1.5 nM | 0.7 nM | 2.3 nM | 1.1 nM | > 40000 nM | 16 nM | – | – | – | – | – | – | COc1ccc(-c2nc(N3C[C@@H](O)[C@@H]3C)nc3c2CCC3(F)F)cc1[S@@](C)(=N)=O (single isomer, unassigned) [Example 495] | – | –
– | 3.9 nM | 12.5 nM | – | – | 19700 nM | – | 6.4 | 30.6 nM | 22.7 nM | – | – | – | C[C@H]1[C@H](F)CN1c1nc(-c2ccc([C@@H](N)CS(C)(=O)=O)cc2)c2c(n1)C(F)(F)CC2 (single isomer, unassigned) [Example 789] | – | –
4.38 | – | – | – | – | 1320 nM | 128 nM | – | – | – | 48.1 nM | 38.8 nM | – | C[C@H]1CCN1c1nc2c(c(-c3cccc(C(N)=O)c3)n1)CCC2 [Example 8, (S)-3-(2-(2-methylazetidin-1-yl)-6,7-dihydro-5H-cyclopenta[d]pyrimidin-4-yl)benzamide] | – | –
4.27 | – | – | – | – | 10200 nM | 177 nM | – | – | – | 2.1 nM | 4.2 nM | 9.27 | C[C@H]1CCN1c1nc2c(c(-c3ccc(CN)cc3)n1)CCC2 [Example 188, [4-[2-[(2S)-2-methylazetidin-1-yl]-6,7-dihydro-5H-cyclopenta[d]pyrimidin-4-yl]phenyl]methanamine] | – | –
4.32 | – | – | – | – | 38.9 nM | 13.1 nM | – | – | – | 3.3 nM | 10 nM | – | C[C@H]1CCN1c1nc2c(c(-c3ccc4c(=O)[nH]ccc4c3)n1)CCC2 [Example 364, 6-[2-[(2S)-2-methylazetidin-1-yl]-6,7-dihydro-5H-cyclopenta[d]pyrimidin-4-yl]-2H-isoquinolin-1-one] | – | –
3.29 | – | – | – | – | 1690 nM | 7.7 nM | – | – | – | 1 nM | 3.4 nM | 6.64 | C[C@H]1CCN1c1nc2c(c(-c3ccc4c(N)nccc4c3)n1)CCC2 [Example 378, 6-[2-[(2S)-2-methylazetidin-1-yl]-6,7-dihydro-5H-cyclopenta[d]pyrimidin-4-yl]isoquinolin-1-amine] | – | –
4.27 | 6.6 nM | 11.1 nM | – | – | 13200 nM | 42.1 nM | – | – | – | – | – | 8.65 | C[C@H]1CCN1c1nc2c(c(-c3ccc(CN)s3)n1)CCC2 [Example 459, [5-[2-[(2S)-2-methylazetidin-1-yl]-6,7-dihydro-5H-cyclopenta[d]pyrimidin-4-yl]-2-thienyl]methanamine] | – | –
10.3 | 0.5 nM | 4 nM | 20.5 nM | 7.3 nM | 3010 nM | 11.4 nM | – | – | – | – | – | – | C[C@H]1[C@H](O)CN1c1nc(-c2ccc3c(c2)OC[C@@H]3NS(C)(=O)=O)c2c(n1)C(F)(F)CC2 [Example 466, N—((R)-6-(7,7-difluoro-2-((2S,3R)-3-hydroxy-2-methylazetidin-1-yl)-6,7-dihydro-5H-cyclopenta[d]pyrimidin-4-yl)-2,3-dihydrobenzofuran-3-yl)methanesulfonamide] | – | –
6.1 | 2 nM | 7 nM | 13.2 nM | 8.4 nM | 23300 nM | 6.4 nM | – | – | – | – | – | – | NC1(c2ccc(-c3nc(N4CC[C@@H]4CF)nc4c3CCC4(F)F)cc2)COC1 [Example 471, (R)-3-(4-(7,7-difluoro-2-(2-(fluoromethyl)azetidin-1-yl)-6,7-dihydro-5H-cyclopenta[d]pyrimidin-4-yl)phenyl)oxetan-3-amine] | – | –
5.3 | 3.5 nM | 5.2 nM | 20.2 nM | 16.5 nM | 2670 nM | – | – | – | – | – | – | – | C[C@H]1[C@H](O)CN1c1nc(-c2ccc3c(c2)S(=O)(=O)CCNC3)c2c(n1)C(F)(F)CC2 [Example 489] | – | –
5.5 | 1.2 nM | 4.6 nM | 19.3 nM | 9.3 nM | 939 nM | – | – | – | – | – | – | – | O=S1(=O)CCNCc2ccc(-c3nc(N4CC[C@@H]4CF)nc4c3CCC4(F)F)cc21 [Example 490, (R)-8-(7,7-difluoro-2-(2-(fluoromethyl)azetidin-1-yl)-6,7-dihydro-5H-cyclopenta[d]pyrimidin-4-yl)-2,3,4,5-tetrahydrobenzo[f][1,4]thiazepine 1,1-dioxide] | – | –
4.5 | 2 nM | 24.2 nM | 26.2 nM | 31.9 nM | 36000 nM | 35.8 nM | – | – | – | – | – | – | C[C@H]1[C@H](O)CN1c1nc(-c2ccc(C3(N)CS(=O)(=O)C3)cc2)c2c(n1)C(F)(F)CC2 [Example 491] | – | –
6.6 | 2.7 nM | – | 22.4 nM | 14.3 nM | 5010 nM | 7.4 nM | – | – | – | – | – | – | C[C@H]1[C@H](O)CN1c1nc(-c2ccc(C3(N)CC(F)(F)C3)cc2)c2c(n1)C(F)(F)CC2 [Example 646, (2S,3R)-1-[4-[4-(1-amino-3,3-difluoro-cyclobutyl)phenyl]-7,7-difluoro-5,6-dihydrocyclopenta[d]pyrimidin-2-yl]-2-methyl-azetidin-3-ol] | – | –
6.3 | 0.5 nM | 1 nM | 6.8 nM | 1.7 nM | 5410 nM | 5.7 nM | – | – | – | – | – | – | NC1(c2ccc(-c3nc(N4CC[C@@H]4C(F)(F)F)nc4c3CCC4(F)F)cc2)COC1 [Example 696, 3-[4-[7,7-difluoro-2-[(2R)-2-(trifluoromethyl)azetidin-1-yl]-5,6-dihydrocyclopenta[d]pyrimidin-4-yl]phenyl]oxetan-3-amine] | – | –
6.3 | 6.1 nM | – | 33.7 nM | 28.2 nM | 12800 nM | 35.2 nM | – | – | – | – | – | – | N#C[C@H]1CCN1c1nc(-c2ccc(C3(N)COC3)cc2)c2c(n1)C(F)(F)CC2 [Example 711, (R)-1-(4-(4-(3-aminooxetan-3-yl)phenyl)-7,7-difluoro-6,7-dihydro-5H-cyclopenta[d]pyrimidin-2-yl)azetidine-2-carbonitrile] | – | –
1.7 | 3 nM | 3.6 nM | 8 nM | 6.9 nM | 2570 nM | – | – | – | – | – | – | – | COc1ccc(-c2nc(N3C[C@@H](O)[C@@H]3C)nc3c2CCC3(F)F)cc1S(N)(=O)=O [Example 763, 5-(7,7-difluoro-2-((2S,3R)-3-hydroxy-2-methylazetidin-1-yl)-6,7-dihydro-5H-cyclopenta[d]pyrimidin-4-yl)-2-methoxybenzenesulfonamide] | – | –

SMILES | pKa [1, 3] | IC50 (human KHK-C) | IC50 (human KHK-A) | EC50 (HepG2 cells; [4]) | EC50 (HepG2 cells; [5]) | IC50 (human OATP1B1) | EC50 [2] | 1st pKa ([1]; pH range 1.7-11.2) | EC50 (HepG2 cells; HepG2 cells, 50% human plasma, read-out: F1P 50% HP EC50) | EC50 (HepG2 cells; read-out: F1P 10% FBS EC50, HepG2 cells, cell culture medium (10% FBS)) | IC50 (human KHK-C; ADP-Glo) | IC50 (human KHK-A; ADP-Glo) | pKa [1, 6] | EC50 (HepG2 cells; Homo sapiens, HepG2, read-out: F1P 10% FBS EC50) | EC50 (HepG2 cells; Homo sapiens, HepG2, read-out: F1P 50% HP EC50)
NC1(c2ccc(-c3nc(N4CC[C@@H]4C(F)F)nc4c3CCC4(F)F)cc2)COC1 (single isomer, unassigned) [Example 687] | 6 | 1.2 nM | 2.8 nM | – | – | 6550 nM | 6.2 nM | – | – | – | – | – | – | 7.6 nM | 14.6 nM
